{"source": "patent US20250213649A1", "about": "“PEPTIDE HAVING ANTI-INFLAMMATORY AND ANTI-FIBROTIC ACTIVITIES AND USE THEREOF” (CAREGEN CO., LTD., priority 2022, published 2025)", "key": {"MRC-5 cells [1]": {"tested_on": "MRC-5 cells", "assay": "ELISA of LPS-induced IL-6 and IL-8, MRC-5 cells", "assay_type": "cell-based", "details": "5 μg/ml LPS, peptide 10, 50, 100, 500 μM, 72 hours, culture supernatant (FIG. 5a, 5b)", "experimental": "MRC-5 cells (lung fibroblast cells) were seeded at 2×10^5 cells/well in a 12-well plate and used in the experiment. After culturing for 1 day with a culture medium containing 10% FBS, the culture medium was replaced with a culture medium without containing FBS to induce starvation for 4 hours. Cells of a normal group without being treated with any substances, a group treated with 5 μg/ml of LPS (Sigma Aldrich) (negative control group), groups treated with 5 μg/ml of LPS and the peptide of Production Example 1 (10, 50, 100, 500 μM), and a group treated with 5 μg/ml of LPS and 10μM of Dexamethasone (DEX) (positive control group) were treated with active substances and drugs respectively and then cultured for 72 hours. After cell culture, the supernatant obtained by centrifuging the culture solution at 4° C. and 3,000 rpm for 10 minutes was subjected to ELISA analysis using an IL-6 Quantikine ELISA Kit (R&D systems) and an IL-8 Quantikine ELISA kit (R&D systems) according to the method of use in the kit instructions, and then the absorbance was measured at 450 nm using a microplate reader."}, "A549 cells": {"tested_on": "A549 cells", "assay": "Inhibition of inflammatory cytokine gene expression induced by IL-1β, RT-PCR, A549 cells", "assay_type": "cell-based, human", "details": "IL-1β 2 ng/ml, peptide 10, 50, 100, 500 μM, 3 hours, RT-PCR (FIG. 8)", "experimental": "A549 cells (human alveolar basal epithelial cells) were seeded at 3×10^5 cells/well in a 6-well plate and used in the experiment. After culturing for 1 day with a culture medium containing 10% FBS, the culture medium was replaced with a culture medium without containing FBS to induce starvation for 4 hours. A normal group without being treated with any substances, a group treated with IL-1β (2 ng/ml) (negative control group), groups treated with IL-1β (2 ng/ml) and the peptide of Production Example 1 (10, 50, 100, 500 μM), and a group treated with IL-1β (2 ng/ml) and 10 μM of Dexamethasone (DEX) (positive control group) were treated with the above-described active substances and drugs respectively, and then RNA was extracted after 3 hours to carry out RT-PCR. RNA was extracted from the A549 cells in each of the above groups using an easy-BLUE™ Total RNA extraction kit (Qiagen, Germany). The extracted RNA was converted into cDNA with RT-PCR premix (iNtRON Biotechnology, Seongnam, Korea). After preparing a reaction mixture with PCR premix (iNtRON Biotechnology, Seongnam, Korea) and primers for each gene, PCR was carried out using a PCR machine (Eppendorf, Germany). Next, the mRNA expression pattern was determined by agarose gel electrophoresis. The base sequences of the primers used in the experiment are as shown in [Table 2]."}, "MRC-5 cells [2]": {"tested_on": "MRC-5 cells", "assay": "Inhibition of fibrosis gene expression induced by LPS, RT-PCR, MRC-5 cells", "assay_type": "cell-based", "details": "5 μg/ml LPS, peptide 10, 50, 100, 500 μM, 3 hours, RT-PCR (FIG. 6)", "experimental": "MRC-5 cells (lung fibroblast cells) were seeded at 2×10^5 cells/well in a 12-well plate and used in the experiment. After culturing for 1 day with a culture medium containing 10% FBS, the culture medium was replaced with a culture medium without containing FBS to induce starvation for 4 hours. Cells of a normal group without being treated with any substances, a group treated with 5 μg/ml of LPS (Sigma Aldrich) (negative control group), groups treated with 5 μg/ml of LPS and the peptide of Production Example 1 (10, 50, 100, 500 μM), and a group treated with 5 μg/ml of LPS and 10 μM of Dexamethasone (DEX) (positive control group) were treated with the above-described active substances and drugs respectively, and then RNA was extracted after 3 hours to carry out RT-PCR. RNA was extracted from MRC-5 cells using an easy-BLUE™ Total RNA extraction kit (Qiagen, Germany). The extracted RNA was converted into cDNA using RT-PCR premix (iNtRON Biotechnology, Seongnam, Korea). After preparing a reaction mixture with PCR premix (iNtRON Biotechnology, Seongnam, Korea) and primers for each gene, PCR was carried out using a PCR machine (Eppendorf, Germany). Next, the mRNA expression pattern was determined by agarose gel electrophoresis."}, "MRC-5 cells [3]": {"tested_on": "MRC-5 cells", "assay": "Inhibition of fibrosis gene expression induced by TGF-β1, RT-PCR, MRC-5 cells", "assay_type": "cell-based", "details": "5 ng/ml TGF-β1, peptide 10, 50, 100, 500 μM, 3 hours, RT-PCR (FIG. 7)", "experimental": "MRC-5 cells (lung fibroblast cells) were seeded at 2×10^5 cells/well in a 12-well plate and used in the experiment. After culturing for 1 day with a culture medium containing 10% FBS, the culture medium was replaced with a culture medium without containing FBS to induce starvation for 4 hours. Cells of a normal group without being treated with any substances, a group treated with 5 ng/ml of TGF-β1 (negative control group), groups treated with 5 ng/ml of TGF-β1 and the peptide of Production Example 1 (10, 50, 100, 500 μM), and a group treated with 5 μg/ml of LPS and 10 μM of Dexamethasone (DEX) (positive control group) were treated with the above-described active substances and drugs, and then RNA was extracted after 3 hours to carry out RT-PCR. RNA was extracted from MRC-5 cells using an easy-BLUE™ Total RNA extraction kit (Qiagen, Germany). The extracted RNA was converted into cDNA using RT-PCR premix (iNtRON Biotechnology, Seongnam, Korea). After preparing a reaction mixture with PCR premix (iNtRON Biotechnology, Seongnam, Korea) and primers for each gene, PCR was carried out using a PCR machine (Eppendorf, Germany). Next, the mRNA expression pattern was determined by agarose gel electrophoresis."}}, "data": [{"sequence": "KYLLVHRPYYRR [peptide of Production Example 1]", "values": [{"measurement": "expression level of IL-6 (ELISA)", "setting": "MRC-5 cells [1]", "result": "decreased the expression levels of IL-6 and IL-8 in a concentration-dependent manner"}, {"measurement": "expression level of IL-8 (ELISA)", "setting": "MRC-5 cells [1]", "result": "decreased the expression levels of IL-6 and IL-8 in a concentration-dependent manner"}, {"measurement": "gene expression level of COX-2", "setting": "A549 cells", "result": "decreases in a concentration-dependent manner"}, {"measurement": "gene expression level of IL-1β", "setting": "A549 cells", "result": "decreases in a concentration-dependent manner"}, {"measurement": "gene expression level of IL-6", "setting": "A549 cells", "result": "decreases in a concentration-dependent manner"}, {"measurement": "gene expression level of IL-8", "setting": "A549 cells", "result": "decreases in a concentration-dependent manner"}, {"measurement": "gene expression level of TNF-α", "setting": "A549 cells", "result": "decreases in a concentration-dependent manner"}, {"measurement": "expression level of Collagen 1A1 gene", "setting": "MRC-5 cells [2]", "result": "decreases again the expression levels of the α-SMA and Collagen 1A1 genes in a concentration-dependent manner"}, {"measurement": "expression level of α-SMA gene", "setting": "MRC-5 cells [2]", "result": "decreases again the expression levels of the α-SMA and Collagen 1A1 genes in a concentration-dependent manner"}, {"measurement": "expression of Collagen 1A1 gene", "setting": "MRC-5 cells [3]", "result": "decreased the expression of genes in a concentration-dependent manner"}, {"measurement": "expression of Fibronectin 1 gene", "setting": "MRC-5 cells [3]", "result": "decreased the expression of genes in a concentration-dependent manner"}, {"measurement": "expression of Tenascin C gene", "setting": "MRC-5 cells [3]", "result": "decreased the expression of genes in a concentration-dependent manner"}, {"measurement": "expression of α-SMA gene", "setting": "MRC-5 cells [3]", "result": "decreased the expression of genes in a concentration-dependent manner"}]}]}
